Columns and labels:
[1] = biological target: T1, sucrase (Rattus norvegicus, UniProt P23739); assay: Ratio of inhibitor to the substrate sucrose (Examples 8, 9); format: biochemical; conditions: 10 min
T1 construct: This liquid contained a mixture of enzymes present in small intestine, such as sucrose, glucoamylase, maltase, and isomaltase; tissue Sigma Corporation; host or cells: rat small intestine (acetone powder), buffer extract, unpurified
Protocol: Twenty samples with the concentrations shown in Table 11, Samples A-1 through A-20, were dissolved in 0.1 M phosphate buffer (pH 6.8) to a final volume of 2.5 ml.
This was made in the same way as in the preparation of a small intestinal enzyme solution in Example 1.
Each 0.15 ml of a small intestinal enzyme solution was added to each 2.5 ml of the aforementioned 20 samples, each mixture, and placed in a water bath at 37° C. to allow reaction for 10 minutes while shaken at 60 strokes/min. At the end of the reaction, the mixture was heated in a boiling water bath for 3 min. for inactivation of the enzyme. As a blank, 0.15 ml of the intestinal enzyme solution was added to 0.1 M phosphate buffer (pH 6.8) and the enzyme was inactivated immediately.
After the reaction, the glucose concentration in each solution was measured using the F-kit Glucose (ex Roche) as in Example 1.
The procedures in Example 8 were repeated with the exception that twenty samples with the concentrations shown in Table 12, Samples B-1 through B-20, were dissolved in 0.1 M phosphate buffer (pH 6.8) to a final volume of 2.5 ml.

[2] = biological target: T2, lactase (Rattus norvegicus, UniProt Q02401); assay: Lactase activity inhibition with rat small-intestinal enzyme liquid, substrate lactose; format: biochemical; conditions: 5% lactose + 5% test sample
T2 construct: tissue Sigma Corporation; host or cells: rat small intestine (acetone powder), buffer extract, unpurified
T2 sequence (Q02401 868-1928): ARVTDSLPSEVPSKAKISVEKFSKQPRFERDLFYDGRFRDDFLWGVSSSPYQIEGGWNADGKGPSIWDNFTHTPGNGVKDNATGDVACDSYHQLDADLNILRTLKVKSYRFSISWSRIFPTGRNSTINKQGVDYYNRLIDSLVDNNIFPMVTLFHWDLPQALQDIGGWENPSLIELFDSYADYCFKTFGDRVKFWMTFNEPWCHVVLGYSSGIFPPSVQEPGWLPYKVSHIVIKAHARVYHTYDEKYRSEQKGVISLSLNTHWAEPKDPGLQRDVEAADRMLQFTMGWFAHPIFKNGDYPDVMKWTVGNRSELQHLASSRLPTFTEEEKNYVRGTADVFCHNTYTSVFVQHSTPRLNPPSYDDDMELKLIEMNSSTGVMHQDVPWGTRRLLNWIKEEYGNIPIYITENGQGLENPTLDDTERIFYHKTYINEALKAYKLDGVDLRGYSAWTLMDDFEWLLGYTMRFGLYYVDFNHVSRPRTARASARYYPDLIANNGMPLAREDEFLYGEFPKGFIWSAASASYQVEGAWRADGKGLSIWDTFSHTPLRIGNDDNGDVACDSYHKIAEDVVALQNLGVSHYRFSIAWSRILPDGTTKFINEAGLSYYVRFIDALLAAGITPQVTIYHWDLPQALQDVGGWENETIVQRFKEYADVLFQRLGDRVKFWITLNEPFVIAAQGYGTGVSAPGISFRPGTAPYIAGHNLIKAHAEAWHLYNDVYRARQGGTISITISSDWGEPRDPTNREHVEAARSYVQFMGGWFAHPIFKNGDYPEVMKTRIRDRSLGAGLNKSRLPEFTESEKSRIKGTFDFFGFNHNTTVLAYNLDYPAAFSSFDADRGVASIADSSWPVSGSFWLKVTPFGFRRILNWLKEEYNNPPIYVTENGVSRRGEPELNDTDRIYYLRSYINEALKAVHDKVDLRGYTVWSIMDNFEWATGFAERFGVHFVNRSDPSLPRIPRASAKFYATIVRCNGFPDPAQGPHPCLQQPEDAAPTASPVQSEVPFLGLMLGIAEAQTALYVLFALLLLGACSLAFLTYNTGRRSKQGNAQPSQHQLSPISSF
Protocol: Two grams of rat small-intestinal acetone powder (ex Sigma Corporation) were dissolved in 20 ml of 0.1 M phosphate buffer (pH 6.8), left standing one day at 5° C., and subsequently subjected to centrifugal separation (8000 rpm×15 min.). The supernatant was filtered through a 0.8 μm membrane filter to obtain a small-intestinal enzyme liquid. This liquid contained a mixture of enzymes present in small intestine, such as sucrose, glucoamylase, maltase, and isomaltase.
Each 0.25 ml of the small-intestinal enzyme liquid was added to each 5 ml of Solutions 1 through 5 and placed in a water bath at 37° C. to allow them to react for 60 min. while shaken at 60 strokes/min. After the reaction, they were heated in a boiling water bath for 3 min. for inactivation of the enzymes.
The glucose concentration in each solution after the reaction was measured using the F-kit Glucose (ex Roche). A liberated glucose concentration (g/l) was calculated by subtracting the blank value (0.1 M phosphate buffer alone) and the concentration of glucose originally contained in the test sample from each glucose concentration measured.
Next, each of the liberated glucose concentration was input in the following equation to obtain decomposition inhibition ratio for maltase and sucrose. In the present tests, the substrates and the inhibitors were decomposed by enzymes present in the small-intestinal enzyme liquid. However, the enzymes decomposing the substrates are different from the enzymes decomposing the inhibitors. The decomposition inhibition ratio was determined as a measure for the inhibitory effect. When the inhibitor was added, the glucose concentration was lower than that seen when the substrate alone was reacted. A higher decomposition inhibition ratio means a stronger inhibitory effect.
Decomposition inhibition ratio,%={(A+B)−(AB)}+(A+B)×100 [Equation 1]
wherein (A+B) indicates a sum of a liberated glucose concentration in the control solution containing the test sample alone after the reaction (A) and a liberated glucose concentration in the control solution containing the substrate alone after the reaction (B); and (AB) indicates a liberated glucose concentration in the test solution containing the test sample (A) and the substrate (B), after the reaction.
The procedures in Example 1 were repeated with the exception that palatinit, palatinose or isomaltose was used as a test sample and lactose was used as a substrate. The test samples and the substrate were dissolved in 0.1 M phosphate buffer (pH 6.8) to attain the concentration shown in Table 5 to thereby prepare three test solutions. Besides, each of the test samples or the substrate was dissolved in 0.1 M phosphate buffer (pH 6.8) to attain the concentration shown in Table 5 to thereby prepare control solutions. Each 5 ml of the aforementioned test solutions and the control solutions was subjected to the enzymatic reaction according to the same procedures as in Example 1. The glucose concentration, the fructose concentration and the galactose concentration were measured. The galactose concentration was measured using F-kit Galactose (ex Roche). The liberated galactose concentration, g/l, was calculated by subtracting the blank value (0.1 M phosphate buffer alone) from the measured galactose concentration.

T1 sequence (P23739 whole entry): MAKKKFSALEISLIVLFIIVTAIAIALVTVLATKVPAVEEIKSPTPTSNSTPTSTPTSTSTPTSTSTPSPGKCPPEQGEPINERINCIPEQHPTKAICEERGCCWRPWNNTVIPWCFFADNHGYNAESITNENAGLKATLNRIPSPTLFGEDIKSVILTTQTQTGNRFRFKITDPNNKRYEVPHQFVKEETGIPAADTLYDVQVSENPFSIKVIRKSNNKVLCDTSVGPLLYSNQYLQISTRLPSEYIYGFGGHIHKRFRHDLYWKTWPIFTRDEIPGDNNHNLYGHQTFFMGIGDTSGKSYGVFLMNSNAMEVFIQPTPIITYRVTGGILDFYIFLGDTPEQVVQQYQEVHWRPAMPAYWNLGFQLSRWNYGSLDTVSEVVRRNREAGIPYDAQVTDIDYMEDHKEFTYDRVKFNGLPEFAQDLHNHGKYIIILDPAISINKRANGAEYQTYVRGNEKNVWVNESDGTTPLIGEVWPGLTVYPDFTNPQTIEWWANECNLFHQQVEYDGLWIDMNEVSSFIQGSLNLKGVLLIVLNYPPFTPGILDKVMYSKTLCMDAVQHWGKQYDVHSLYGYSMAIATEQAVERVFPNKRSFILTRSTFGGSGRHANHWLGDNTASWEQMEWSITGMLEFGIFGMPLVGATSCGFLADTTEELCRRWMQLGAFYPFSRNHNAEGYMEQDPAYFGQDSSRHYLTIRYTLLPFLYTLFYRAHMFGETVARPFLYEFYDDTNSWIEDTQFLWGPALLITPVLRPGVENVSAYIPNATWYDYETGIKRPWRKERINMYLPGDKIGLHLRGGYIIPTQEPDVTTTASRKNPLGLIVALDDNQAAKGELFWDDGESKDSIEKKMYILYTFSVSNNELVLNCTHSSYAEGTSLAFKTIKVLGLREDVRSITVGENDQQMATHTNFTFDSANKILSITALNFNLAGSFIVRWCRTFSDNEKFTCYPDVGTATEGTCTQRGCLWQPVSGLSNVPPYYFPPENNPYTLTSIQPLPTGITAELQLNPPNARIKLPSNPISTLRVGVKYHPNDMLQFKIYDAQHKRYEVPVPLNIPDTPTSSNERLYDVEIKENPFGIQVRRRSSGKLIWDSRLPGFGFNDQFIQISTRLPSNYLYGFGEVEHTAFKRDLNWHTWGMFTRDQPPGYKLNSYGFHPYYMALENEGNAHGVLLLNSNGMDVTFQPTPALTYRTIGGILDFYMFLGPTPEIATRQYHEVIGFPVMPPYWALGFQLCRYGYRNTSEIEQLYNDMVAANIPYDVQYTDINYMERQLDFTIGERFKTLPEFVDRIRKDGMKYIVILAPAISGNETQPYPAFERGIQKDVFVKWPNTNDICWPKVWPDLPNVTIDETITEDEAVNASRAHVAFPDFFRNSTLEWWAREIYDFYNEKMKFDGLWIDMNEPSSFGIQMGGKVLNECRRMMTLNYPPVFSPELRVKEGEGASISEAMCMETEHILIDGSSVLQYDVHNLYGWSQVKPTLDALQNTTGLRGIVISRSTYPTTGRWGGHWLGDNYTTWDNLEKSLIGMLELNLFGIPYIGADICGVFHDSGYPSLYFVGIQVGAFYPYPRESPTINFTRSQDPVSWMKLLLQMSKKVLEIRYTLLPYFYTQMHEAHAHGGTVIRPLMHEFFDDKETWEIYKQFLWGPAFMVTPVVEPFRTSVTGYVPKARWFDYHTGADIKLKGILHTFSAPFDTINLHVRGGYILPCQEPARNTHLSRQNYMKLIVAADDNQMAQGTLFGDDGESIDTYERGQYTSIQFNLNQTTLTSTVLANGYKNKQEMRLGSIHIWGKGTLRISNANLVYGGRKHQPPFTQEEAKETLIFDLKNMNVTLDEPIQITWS

SMILES: OC[C@H]1O[C@H](OC[C@H]2OC(O)(CO)[C@@H](O)[C@@H]2O)[C@H](O)[C@@H](O)[C@@H]1O (stereo partly shown) [palatinose, isomaltulose]
- Inhibitory effect on the decomposition of sucrose (FIG. 5) ([1]; sucrose concentration 0.5%, palatinose 5, 10, 50% relative to sucrose): not clear
- Ratio of palatinose added relative to the weight of sucrose at which decomposition of sucrose was suppressed (FIG. 4) ([1]; sucrose concentrations 3%, 5%, 10% and 15%): ≥ 10%
- Decomposition inhibition ratio, %, against lactase [2]: 3%
- Lactase activity inhibitory effect (in words) [2]: no lactose inhibitory effect was appreciable
- Liberated fructose concentration [2]: 0.23 g/L
- Liberated galactose concentration [2]: 0.12 g/L
- Liberated glucose concentration [2]: 0.33 g/L
